Data reported in the supplement of paper PMC10733146.

Experiments:
Test in all cases: viability relative to DMSO control (fraction); higher = less drug effect (more viable cells)
Settings in all cases: 48 h
MLN-120B = compound: COc1c(Cl)cc2c([nH]c3cnccc32)c1NC(=O)c1cccnc1C [MLN-120B]
Procedure, shortened: (§1)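 Using 384-well plates with compounds already plated at five concentrations, one well per concentration, 4 × 10^4 primary mononuclear tumour cells were added per well. Cells were Ficoll-isolated from blood or bone marrow or came from processed lymph node, fresh or cryopreserved. They were kept for 48 h at 37 °C and 5% CO2 in RPMI-1640 supplemented with penicillin/streptomycin, L-glutamine and human serum, and viability was read as CellTiter-Glo luminescence relative to the median of 16 inner DMSO wells.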

Imatinib = compound: Cc1ccc(NC(=O)c2ccc(CN3CCN(C)CC3)cc2)cc1Nc1nccc(-c2cccnc2)n1 [Imatinib]
Procedure, shortened: as §1

Idarubicin = compound: CC(=O)[C@]1(O)Cc2c(O)c3c(c(O)c2[C@@H](O[C@H]2C[C@H](N)[C@H](O)[C@H](C)O2)C1)C(=O)c1ccccc1C3=O [Idarubicin]
Procedure, shortened: as §1

Panobinostat = compound: Cc1[nH]c2ccccc2c1CCNCc1ccc(/C=C/C(=O)NO)cc1 [Panobinostat]
Procedure, shortened: as §1

AZD7762 = compound: NC(=O)Nc1cc(-c2cccc(F)c2)sc1C(=O)N[C@H]1CCCNC1 [AZD7762]
Procedure, shortened: as §1

Vorinostat = compound: O=C(CCCCCCC(=O)Nc1ccccc1)NO [Vorinostat]
Procedure, shortened: as §1

Pralatrexate = compound: C#CCC(Cc1cnc2nc(N)nc(N)c2n1)c1ccc(C(=O)N[C@@H](CCC(=O)O)C(=O)O)cc1 [Pralatrexate]
Procedure, shortened: as §1

Pentostatin = compound: OC[C@H]1O[C@@H](n2cnc3c2N=CNC[C@H]3O)C[C@@H]1O [Pentostatin]
Procedure, shortened: as §1

Iniparib = compound: NC(=O)c1ccc(I)c([N+](=O)[O-])c1 [Iniparib]
Procedure, shortened: as §1

ERK5-IN-1 = compound: CCOc1cc(C(=O)N2CCC(N3CCN(C)CC3)CC2)ccc1Nc1ncc2c(n1)N(C1CCCC1)c1ccccc1C(=O)N2C [ERK5-IN-1]
Procedure, shortened: as §1

TMP269 = compound: O=C(NCC1(c2nc(-c3ccccc3)cs2)CCOCC1)c1cccc(-c2noc(C(F)(F)F)n2)c1 [TMP269]
Procedure, shortened: as §1

Cladribine = compound: Nc1nc(Cl)nc2c1ncn2[C@H]1C[C@H](O)[C@@H](CO)O1 [Cladribine]
Procedure, shortened: as §1

Obatoclax mesylate = compound: COC1=CC(c2cc3ccccc3[nH]2)=N/C1=C\c1[nH]c(C)cc1C [Obatoclax mesylate]
Procedure, shortened: as §1

Ribociclib = compound: CN(C)C(=O)c1cc2cnc(Nc3ccc(N4CCNCC4)cn3)nc2n1C1CCCC1 [Ribociclib]
Procedure, shortened: as §1

Birinapant = compound: CC[C@H](NC(=O)[C@H](C)NC)C(=O)N1C[C@@H](O)C[C@H]1Cc1c(-c2[nH]c3cc(F)ccc3c2C[C@@H]2C[C@H](O)CN2C(=O)[C@H](CC)NC(=O)[C@H](C)NC)[nH]c2cc(F)ccc12 [Birinapant]
Procedure, shortened: as §1

Test System primary AML patient cells (S055) has a viability (MLN-120B; 0.024 µM) of 0.876, a viability (MLN-120B; 0.12 µM) of 0.912 and a viability (MLN-120B; 0.6 µM) of 0.89. The viability (MLN-120B; 3 µM) was 0.928, the viability (MLN-120B; 15 µM) was 0.868 and the viability (Imatinib; 0.08 µM) was 1.07. For the same test system, the viability (Imatinib; 10 µM) was 1.16, the viability (Idarubicin; 0.024 µM) was 0.992 and the viability (Idarubicin; 0.12 µM) was 0.712. It also gave a viability (Idarubicin; 0.6 µM) of 0.0486, a viability (Idarubicin; 3 µM) of 0.0426 and a viability (Idarubicin; 15 µM) of 0.0227. The viability (Panobinostat; 0.00064 µM) was 0.99, the viability (Panobinostat; 0.0032 µM) was 0.866 and the viability (Panobinostat; 0.016 µM) was 0.456. For the same test system, the viability (Panobinostat; 0.08 µM) was 0.116, the viability (Panobinostat; 0.4 µM) was 0.0698 and the viability (AZD7762; 0.024 µM) was 1.02. The viability (AZD7762; 0.12 µM) was 0.998, the viability (AZD7762; 0.6 µM) was 0.918 and the viability (AZD7762; 3 µM) was 0.633. For the same test system, the viability (AZD7762; 15 µM) was 0.701, the viability (Vorinostat; 0.016 µM) was 1.05 and the viability (Vorinostat; 0.08 µM) was 1.04. The viability (Vorinostat; 0.4 µM) was 0.929, the viability (Vorinostat; 2 µM) was 0.586 and the viability (Vorinostat; 10 µM) was 0.118. For the same test system, the viability (Pralatrexate; 0.024 µM) was 0.998, the viability (Pralatrexate; 0.12 µM) was 0.942 and the viability (Pralatrexate; 0.6 µM) was 0.979. The viability (Pralatrexate; 3 µM) was 0.918, the viability (Pralatrexate; 15 µM) was 0.971 and the viability (Pentostatin; 0.03 µM) was 1.03. The viability (Pentostatin; 0.15 µM) was 1.03, the viability (Pentostatin; 0.75 µM) was 0.994 and the viability (Pentostatin; 3.75 µM) was 1.01. The viability (Pentostatin; 18.76 µM) was 0.896, the viability (Iniparib; 0.024 µM) was 1.16 and the viability (Iniparib; 0.12 µM) was 1.08. For the same test system, the viability (Iniparib; 0.6 µM) was 1.04, the viability (Iniparib; 3 µM) was 1.06 and the viability (Iniparib; 15 µM) was 1.02. For the same test system, the viability (ERK5-IN-1; 0.024 µM) was 0.929, the viability (ERK5-IN-1; 0.12 µM) was 0.945 and the viability (ERK5-IN-1; 0.6 µM) was 0.914. It also gave a viability (ERK5-IN-1; 3 µM) of 0.818, a viability (ERK5-IN-1; 15 µM) of 0.615 and a viability (TMP269; 0.024 µM) of 0.986. The viability (TMP269; 0.12 µM) was 1.02, the viability (TMP269; 0.6 µM) was 0.982 and the viability (TMP269; 3 µM) was 0.996. The viability (TMP269; 15 µM) was 0.922, the viability (Cladribine; 0.024 µM) was 0.784 and the viability (Cladribine; 0.12 µM) was 0.542. For the same test system, the viability (Cladribine; 0.6 µM) was 0.455, the viability (Cladribine; 3 µM) was 0.44 and the viability (Cladribine; 15 µM) was 0.44.

primary CLL patient cells (S043) gave a viability (MLN-120B; 0.024 µM) of 0.817, a viability (MLN-120B; 0.12 µM) of 0.838 and a viability (MLN-120B; 0.6 µM) of 0.837. The viability (MLN-120B; 3 µM) was 0.827, the viability (MLN-120B; 15 µM) was 0.797 and the viability (Obatoclax mesylate; 0.024 µM) was 1.01. For the same test system, the viability (Obatoclax mesylate; 0.12 µM) was 0.983, the viability (Obatoclax mesylate; 0.6 µM) was 0.708 and the viability (Obatoclax mesylate; 3 µM) was 0.54. For the same test system, the viability (Obatoclax mesylate; 15 µM) was 0.255, the viability (Idarubicin; 0.024 µM) was 0.88 and the viability (Idarubicin; 0.12 µM) was 0.236. For the same test system, the viability (Idarubicin; 0.6 µM) was 0.0477, the viability (Idarubicin; 3 µM) was 0.0213 and the viability (Idarubicin; 15 µM) was 0.0214. The viability (Panobinostat; 0.00064 µM) was 0.921, the viability (Panobinostat; 0.0032 µM) was 0.809 and the viability (Panobinostat; 0.016 µM) was 0.398. It also gave a viability (Panobinostat; 0.08 µM) of 0.0971, a viability (Panobinostat; 0.4 µM) of 0.0796 and a viability (AZD7762; 0.024 µM) of 0.644. For the same test system, the viability (AZD7762; 0.12 µM) was 0.572, the viability (AZD7762; 0.6 µM) was 0.545 and the viability (AZD7762; 3 µM) was 0.501. For the same test system, the viability (AZD7762; 15 µM) was 0.517, the viability (Vorinostat; 0.016 µM) was 1.07 and the viability (Vorinostat; 0.08 µM) was 0.958. The viability (Vorinostat; 0.4 µM) was 0.905, the viability (Vorinostat; 2 µM) was 0.62 and the viability (Vorinostat; 10 µM) was 0.116. It also gave a viability (Ribociclib; 0.024 µM) of 0.904, a viability (Ribociclib; 0.12 µM) of 1.1 and a viability (Ribociclib; 0.6 µM) of 0.995. It also gave a viability (Ribociclib; 3 µM) of 0.933, a viability (Ribociclib; 15 µM) of 0.771 and a viability (Pralatrexate; 0.024 µM) of 0.925. It also gave a viability (Pralatrexate; 0.12 µM) of 0.892, a viability (Pralatrexate; 0.6 µM) of 0.876 and a viability (Pralatrexate; 3 µM) of 0.891. The viability (Pralatrexate; 15 µM) was 0.836, the viability (Pentostatin; 0.03 µM) was 0.974 and the viability (Pentostatin; 0.15 µM) was 1.01. It also gave a viability (Pentostatin; 0.75 µM) of 0.969, a viability (Pentostatin; 3.75 µM) of 0.95 and a viability (Pentostatin; 18.76 µM) of 0.86. The viability (Iniparib; 0.024 µM) was 1.24, the viability (Iniparib; 0.12 µM) was 1.21 and the viability (Iniparib; 0.6 µM) was 0.999. For the same test system, the viability (Iniparib; 3 µM) was 1.02, the viability (Iniparib; 15 µM) was 0.86 and the viability (ERK5-IN-1; 0.024 µM) was 0.822. It also gave a viability (ERK5-IN-1; 0.12 µM) of 0.865, a viability (ERK5-IN-1; 0.6 µM) of 0.784 and a viability (ERK5-IN-1; 3 µM) of 0.728. It also gave a viability (ERK5-IN-1; 15 µM) of 0.533, a viability (TMP269; 0.024 µM) of 0.878 and a viability (TMP269; 0.12 µM) of 0.925. The viability (TMP269; 0.6 µM) was 0.908, the viability (TMP269; 3 µM) was 0.903 and the viability (TMP269; 15 µM) was 0.85. It also gave a viability (Cladribine; 0.024 µM) of 0.922, a viability (Cladribine; 0.12 µM) of 0.665 and a viability (Cladribine; 0.6 µM) of 0.519. For the same test system, the viability (Cladribine; 3 µM) was 0.393, the viability (Cladribine; 15 µM) was 0.31 and the viability (Birinapant; 0.0008 µM) was 0.984. For the same test system, the viability (Birinapant; 0.004 µM) was 0.947, the viability (Birinapant; 0.02 µM) was 0.965 and the viability (Birinapant; 0.1 µM) was 1.09. It also gave a viability (Birinapant; 0.5 µM) of 0.992.
